The record followed here is ChEMBL document CHEMBL1145985, “Poly(ethylene glycol) transport forms of vancomycin: a long-lived continuous release delivery system” (J Med Chem, 2003).

A short description of data set [1]: Half-life in rat plasma. Type of data set: ADME, organism-based.
Data set [2] can be described thus: Solubility was measured in saline at 25 degree C. The format is physicochemical.
A short description of data set [3]: Half-life in human plasma. The format is ADME, cell-free.
Data set [4] has as its system Rattus norvegicus. As to the kind of experiment: (§1) Volume of distribution at a steady state measured after intravenous bolus administration of 50 mg/kg of compound to rats. Type of data set: ADME, organism-based. Also noted: dose 50 mg/kg, route intravenous. The conditions noted are these: in vivo.
The nature of data set [5]: Maximum plasma concentration measured after intravenous bolus administration of 50 mg/kg of compound to rats. Type of data set: ADME, organism-based. Also noted: dose 50 mg/kg, route intravenous. Particulars: rat.
The test system of data set [6] is Rattus norvegicus. As to the kind of experiment: (§2) Clearance measured after intravenous bolus administration of 50 mg/kg of compound to rats. Type of data set: ADME, organism-based. The arrangement: dose 50 mg/kg, route intravenous. Particulars: in vivo.
The nature of data set [7]: Area under the curve measured after intravenous bolus administration of 50 mg/kg of compound to rats. The format is ADME, organism-based. Also noted: dose 50 mg/kg, route intravenous. Particulars: rat, in vivo.
Data set [8] has as its system Rattus norvegicus. As to the kind of experiment: (§3) Circulatory half life measured after intravenous bolus administration of 50 mg/kg of compound to rats. The format is ADME, organism-based. Also noted: dose 50 mg/kg, route intravenous. Particulars: in vivo.
The species entered for data set [9] is Mus musculus. As to the kind of experiment: Anti-microbial activity against Staphylococcus aureus measured as percent survival of mice after pre challenge. Type of data set: functional.
The species named for data set [10] is Mus musculus. As to the kind of experiment: Anti-microbial activity against Staphylococcus aureus measured as percent survival of mice 1 hr post challenge. Type of data set: functional. The arrangement: concentration or dose not given beside the values.
A short description of data set [11]: as §1. The format is ADME, organism-based. Also noted: dose 50 mg/kg, route intravenous. Particulars: rat, in vivo, read-out: Vss.
Data set [12] can be described thus: as §2. Also noted: dose 50 mg/kg, route intravenous. Type of data set: ADME, organism-based. The conditions noted are these: rat, in vivo.
Data set [13] in a line: as §3. Type of data set: ADME, organism-based. Also noted: dose 50 mg/kg, route intravenous. Particulars: rat, in vivo.

Converted amounts (≈) assume the structure as drawn.

As a reminder, the half-life is the time in which the quantity being followed falls by half. Usually solubility stands for how much of the substance goes into solution per volume. For `O=C(O)COCCO`, the half-life in data set [1] was over 24 h. Moreover, the solubility in [2] amounted to 128 mg/mL (≈ 1070 mM).

Broadly, the Vss is the apparent volume that relates the amount in the body to the concentration in plasma or blood. For orientation: Cmax means the peak of the concentration-time curve. As usually defined, the AUC is the area under the concentration-time curve, a measure of exposure. Consider `CN[C@H](CC(C)C)C(=O)N[C@H]1C(=O)N[C@@H](CC(N)=O)C(=O)N[C@H]2C(=O)N[C@H]3C(=O)N[C@H](C(=O)N[C@H](C(=O)O)c4cc(O)cc(O)c4-c4cc3ccc4O)[C@H](O)c3ccc(c(Cl)c3)Oc3cc2cc(c3OC2OC(CO)C(O)C(O)C2OC2CC(C)(NC(=O)OCc3cc(C)c(OC(=O)C(C)NC(=O)COCCO)c(C)c3)C(O)C(C)O2)Oc2ccc(cc2Cl)[C@H]1O` (some centres undefined), for which the half-life in data set [3] is over 24 h; in [1], 16 h. This compound also gave a Vss in [4] of 2.6408 L/kg. In data set [5], this compound returned a peak concentration (Cmax) of 47.9 µg/mL. In addition, the CL in data set [6] was 2.972 mL/min/kg. Also, the AUC in data set [7] stood at 282 µg·h/mL. The T1/2 in [8] turned out to be 4.09 h. For the same compound, the solubility in data set [2] was 122 mg/mL (≈ 67.8 mM). For the same compound, the figures for the Survival in data set [9] and in [10] were 80% and 100%, respectively.

With `CN[C@H](CC(C)C)C(=O)N[C@H]1C(=O)N[C@@H](CC(N)=O)C(=O)N[C@H]2C(=O)N[C@H]3C(=O)N[C@H](C(=O)N[C@H](C(=O)O)c4cc(O)cc(O)c4-c4cc3ccc4O)[C@H](O)c3ccc(c(Cl)c3)Oc3cc2cc(c3OC2OC(CO)C(O)C(O)C2OC2CC(C)(NC(=O)OCc3cc(C)c(OC(=O)COCCO)c(C)c3)C(O)C(C)O2)Oc2ccc(cc2Cl)[C@H]1O` (some centres undefined), the half-life in data set [3] is 6.6 h; in data set [1], 2 h. In data set [2], the concentration in solution (solubility) was 131 mg/mL (≈ 75.7 mM). The compound further showed a Survival in data set [10] of 100%.

As to `CN[C@H](CC(C)C)C(=O)N[C@H]1C(=O)N[C@@H](CC(N)=O)C(=O)N[C@H]2C(=O)N[C@H]3C(=O)N[C@H](C(=O)N[C@H](C(=O)O)c4cc(O)cc(O)c4-c4cc3ccc4O)[C@H](O)c3ccc(c(Cl)c3)Oc3cc2cc(c3OC2OC(CO)C(O)C(O)C2OC2CC(C)(NC(=O)OCc3cc(C)c(OC(=O)CNC(=O)COCCO)c(C)c3)C(O)C(C)O2)Oc2ccc(cc2Cl)[C@H]1O` (some centres undefined), the half-life in data set [3] is 27 h; in data set [1], 19 h; in [13] it was 10.5 h. Besides, the Vd in data set [11] came to 2.72 L/kg. The compound further displayed a maximum concentration (Cmax) in data set [5] of 25.5 µg/mL. In data set [12] (read-out: CL (converted)), the clearance is 2.19 mL/min/kg. The compound also came in with an AUC in [7] of 386 µg·h/mL. Besides, the solubility in data set [2] was determined as 145 mg/mL (≈ 81.2 mM). The compound further returned a Survival in data set [10] of 100%.

Consider `CN[C@H](CC(C)C)C(=O)N[C@H]1C(=O)N[C@@H](CC(N)=O)C(=O)N[C@H]2C(=O)N[C@H]3C(=O)N[C@H](C(=O)N[C@H](C(=O)O)c4cc(O)cc(O)c4-c4cc3ccc4O)[C@H](O)c3ccc(c(Cl)c3)Oc3cc2cc(c3O[C@@H]2O[C@H](CO)[C@@H](O)[C@H](O)[C@H]2O[C@H]2C[C@](C)(N)[C@H](O)[C@H](C)O2)Oc2ccc(cc2Cl)[C@H]1O` [VANCOMYCIN], for which the Vd in data set [11] is 0.309 L/kg. In data set [5], the peak level (Cmax) was 162 µg/mL. In data set [12], this compound gave a clearance of 10.7 mL/min/kg. The AUC in [7] was 78.8 µg·h/mL. Moreover, in [13], the half-life is 0.34 h. In addition, the Survival came to 0% in data set [9] and 100% in data set [10].

In the case of `CN[C@H](CC(C)C)C(=O)N[C@H]1C(=O)N[C@@H](CC(N)=O)C(=O)N[C@H]2C(=O)N[C@H]3C(=O)N[C@H](C(=O)N[C@H](C(=O)O)c4cc(O)cc(O)c4-c4cc3ccc4O)[C@H](O)c3ccc(c(Cl)c3)Oc3cc2cc(c3OC2OC(CO)C(O)C(O)C2OC2CC(C)(NC(=O)OCc3cc(C)c(OC(=O)CNC(=O)CC(NC(=O)COCCO)C(=O)NCC(=O)Oc4c(C)cc(COC(=O)NC5(C)CC(OC6C(Oc7c8cc9cc7Oc7ccc(cc7Cl)[C@@H](O)[C@@H](NC(=O)[C@@H](CC(C)C)NC)C(=O)N[C@@H](CC(N)=O)C(=O)N[C@H]9C(=O)N[C@H]7C(=O)N[C@H](C(=O)N[C@H](C(=O)O)c9cc(O)cc(O)c9-c9cc7ccc9O)[C@H](O)c7ccc(c(Cl)c7)O8)OC(CO)C(O)C6O)OC(C)C5O)cc4C)c(C)c3)C(O)C(C)O2)Oc2ccc(cc2Cl)[C@H]1O` (some centres undefined), the half-life in data set [3] is over 24 h; in [1], 20 h. The compound also registered a Vss in [4] of 3.598 L/kg. In [5], this compound yielded a Cmax of 29.3 µg/mL. Moreover, in data set [6], the CL worked out at 1.63 mL/min/kg. This compound yielded an AUC in data set [7] of 513 µg·h/mL. The T1/2 in data set [8] turned out to be 12.37 h. Besides, the concentration in solution in data set [2] (solubility) was 120 mg/mL (≈ 33.6 mM). The compound also had a Survival in data set [10] of 100%.

For the compound `CN[C@H](CC(C)C)C(=O)N[C@H]1C(=O)N[C@@H](CC(N)=O)C(=O)N[C@H]2C(=O)N[C@H]3C(=O)N[C@H](C(=O)N[C@H](C(=O)O)c4cc(O)cc(O)c4-c4cc3ccc4O)[C@H](O)c3ccc(c(Cl)c3)Oc3cc2cc(c3OC2OC(CO)C(O)C(O)C2OC2CC(C)(NC(=O)OCc3cc(C)c(OC(=O)NCCOCCOCCNC(=O)CNC(=O)CC(NC(=O)COCCO)C(=O)NCC(=O)NCCOCCOCCNC(=O)Oc4c(C)cc(COC(=O)NC5(C)CC(OC6C(Oc7c8cc9cc7Oc7ccc(cc7Cl)[C@@H](O)[C@@H](NC(=O)[C@@H](CC(C)C)NC)C(=O)N[C@@H](CC(N)=O)C(=O)N[C@H]9C(=O)N[C@H]7C(=O)N[C@H](C(=O)N[C@H](C(=O)O)c9cc(O)cc(O)c9-c9cc7ccc9O)[C@H](O)c7ccc(c(Cl)c7)O8)OC(CO)C(O)C6O)OC(C)C5O)cc4C)c(C)c3)C(O)C(C)O2)Oc2ccc(cc2Cl)[C@H]1O` (some centres undefined), the half-life in data set [3] is over 24 h; in data set [1] it was 36 h. In addition, the Vss in data set [4] worked out at 1.341 L/kg. The compound also showed a Cmax in data set [5] of 107 µg/mL. Besides, the CL in data set [6] is 0.383 mL/min/kg. In [7], this compound showed an AUC of 2180 µg·h/mL. In data set [8], this compound showed a T1/2 of 14.2 h. Also, the solubility in data set [2] is 141 mg/mL (≈ 36 mM). The compound also gave a Survival in [10] of 100%.

With `CN[C@H](CC(C)C)C(=O)N[C@H]1C(=O)N[C@@H](CC(N)=O)C(=O)N[C@H]2C(=O)N[C@H]3C(=O)N[C@H](C(=O)N[C@H](C(=O)O)c4cc(O)cc(O)c4-c4cc3ccc4O)[C@H](O)c3ccc(c(Cl)c3)Oc3cc2cc(c3OC2OC(CO)C(O)C(O)C2OC2CC(C)(NC(=O)OCc3cc(C)c(OC(=O)NCCOCCO)c(C)c3)C(O)C(C)O2)Oc2ccc(cc2Cl)[C@H]1O` (some centres undefined), the half-life in [3] was over 24 h; in [1], over 24 h; in [13] it was 9.12 h. Also, the Vd in data set [11] was 1.65 L/kg. Also, the Cmax in data set [5] was found to be 54.6 µg/mL. In addition, the clearance in data set [12] (read-out: CL (converted)) was 1.17 mL/min/kg. In data set [7], this compound showed an AUC of 717 µg·h/mL. The compound also had a solubility in [2] of 141 mg/mL (≈ 80.2 mM). This compound also registered a Survival in [10] of 90%.
